≈ marks a conversion by molar mass, not a printed value. Counter-ions that a name gives are not always drawn. Like-named read-outs stand apart in the source and are kept apart here.
Legend:
[1] = system: Staphylococcus aureus No. 50774; experiment: In vivo efficacy against systemic infection; parameters: species or system male mice (ddY); conditions: NO.50774, in Mus musculus, 336 h, sc, twice, about 5 minutes and 6 hours after infection, read-out: ED50 (median effective dose)
Procedure: (§1) The contents in the vials (No. A and No. C) prepared in Example 17 were each dissolved in deionized water, and injections having various concentrations were prepared.
Compounds A, B, F, G, H and M were dissolved in deionized water. Compounds C, D, E and J were dissolved in an aqueous solution of sodium carbonate (pH 8-9) to prepare injections of various concentrations.
Each of the injections was administered to mice under the conditions described below, and the median effective doses (ED50) obtained are shown in Table II.
(§2) Mice: male mice (ddY) weighting about 20g
Staphylococcus aureus No. 50774;
Intravenous infection with 50 to 100
LD50 (about 5 × 10^8cells/mouse) of a
bacterial suspension in saline.
(§3) twice, about 5 minutes and 6 hours after
Staphylococcus aureus No. 50774 14 days
The numerals in the table show ED50 (mg/kg). ED50 values were
(§4) calculated in accordance with the Behrens-Kaerber method [Arch. Exp. Path

in vivo = conditions: mouse
[2] = system: Pseudomonas aeruginosa No. 12; experiment: In vivo efficacy against systemic infection; parameters: species or system male mice (ddY); conditions: NO.12, in Mus musculus, sc, twice, about 5 minutes and 6 hours after infection, read-out: ED50 (median effective dose)
Procedure: as §1
(§5) Compounds A, B, F, G, H and M were dissolved in deionized water.
as §2
Pseudomonas aeruginosa No. 12;
(§6) Intraperitoneal infection with 50 to
(§7) of a bacterial suspension in tryptosoy
as §3
Pseudomonas aeruginosa No. 12
as §4

Escherichia coli P-5101 [3] = experiment: In vivo efficacy against systemic infection; parameters: species or system male mice (ddY); conditions: P5101, in Mus musculus, 168 h, sc, twice, about 5 minutes and 6 hours after infection, read-out: ED50 (median effective dose)
Procedure: as §1, §5, §2, §6, §7, §3, §4

Escherichia coli P-140a = experiment: In vitro antibacterial activity (MIC); type: cell-based
Text: (§8) In vitro antibacterial activity against 20 strains of bacteria
(§9) The numerals in the table show minimum inhibitory concentrations (MIC)

Proteus rettgeri P-2503 = experiment: In vitro antibacterial activity (MIC); type: cell-based; conditions: Providencia rettgeri, P2503, read-out: minimum inhibitory concentration (MIC)
Text: as §8, §9

Proteus mirabilis P-2381 = experiment: In vitro antibacterial activity (MIC); type: cell-based; conditions: Proteus mirabilis, P2381, read-out: minimum inhibitory concentration (MIC)
Text: as §8, §9

[4] = system: Streptococcus faecalis P-2473; experiment: In vitro antibacterial activity (MIC); type: cell-based; conditions: Enterococcus faecalis, P2473, read-out: minimum inhibitory concentration (MIC)
Text: as §8, §9

[5] = system: Corynebacterium pyogenes C-21; experiment: In vitro antibacterial activity (MIC); type: cell-based; conditions: Rhodococcus (subgen. Prescottella) equi, C21; Corynebacterium pyogenes C-21; read-out: minimum inhibitory concentration (MIC)
Text: as §8, §9

Proteus morganii Kono = experiment: In vitro antibacterial activity (MIC); type: cell-based; conditions: Morganella morganii, read-out: minimum inhibitory concentration (MIC)
Text: as §8, §9

[6] = system: Shigella flexneri 4a P-330; experiment: In vitro antibacterial activity (MIC); type: cell-based; conditions: 4AP330, read-out: minimum inhibitory concentration (MIC)
Text: as §8, §9

[7] = system: Escherichia coli NIHJ JC-2; experiment: In vitro antibacterial activity (MIC); type: cell-based; conditions: Escherichia coli, NIHJJC2, read-out: minimum inhibitory concentration (MIC)
Text: as §8, §9

Escherichia coli P-5101 [8] = experiment: In vitro antibacterial activity (MIC); type: cell-based
Text: as §8, §9

Shigella flexneri 2a = experiment: In vitro antibacterial activity (MIC); type: cell-based; conditions: read-out: minimum inhibitory concentration (MIC)
Text: as §8, §9

[9] = system: Enterobacter cloacae P-2540; experiment: In vitro antibacterial activity (MIC); type: cell-based; conditions: P2540; Enterobacter cloacae P-2540; read-out: minimum inhibitory concentration (MIC)
Text: as §8, §9

[10] = system: Staphylococcus aureus No. 50774; experiment: In vitro antibacterial activity (MIC); type: cell-based; conditions: Staphylococcus aureus No. 50774; read-out: minimum inhibitory concentration (MIC)
Text: as §8, §9

[11] = system: Staphylococcus aureus 209P JC-1; experiment: In vitro antibacterial activity (MIC); type: cell-based; conditions: read-out: minimum inhibitory concentration (MIC)
Text: as §8, §9

[12] = system: Pseudomonas aeruginosa Tsuchijima; experiment: In vitro antibacterial activity (MIC); type: cell-based; conditions: Pseudomonas aeruginosa Tsuchijima; read-out: minimum inhibitory concentration (MIC)
Text: as §8, §9

[13] = system: Salmonella typhimurium S-9; experiment: In vitro antibacterial activity (MIC); type: cell-based; conditions: Salmonella enterica; Salmonella typhimurium S-9; read-out: minimum inhibitory concentration (MIC)
Text: as §8, §9

[14] = system: Serratia mercescens IFO 3736; experiment: In vitro antibacterial activity (MIC); type: cell-based; conditions: Serratia, IFO3736, read-out: minimum inhibitory concentration (MIC)
Text: as §8, §9

[15] = system: Pseudomonas aeruginosa No.12; experiment: In vitro antibacterial activity (MIC); type: cell-based; conditions: Pseudomonas aeruginosa, NO.12, read-out: minimum inhibitory concentration (MIC)
Text: as §8, §9

[16] = system: Streptococcus pyogenes 65A; experiment: In vitro antibacterial activity (MIC); type: cell-based; conditions: read-out: minimum inhibitory concentration (MIC)
Text: as §8, §9

[17] = system: Klebsiella pneumoniae No. 13; experiment: In vitro antibacterial activity (MIC); type: cell-based; conditions: Klebsiella pneumoniae, NO.13, read-out: minimum inhibitory concentration (MIC)
Text: as §8, §9

[18] = system: Salmonella enteritidis No. 1891; experiment: In vitro antibacterial activity (MIC); type: cell-based; conditions: Salmonella enterica; Salmonella enteritidis No. 1891; read-out: minimum inhibitory concentration (MIC)
Text: as §8, §9

SMILES | ED50 [1] [mg/kg] | LD50 at 168 h (in vivo; sc) [mg/kg] | ED50 [2] [mg/kg] | ED50 (Escherichia coli P-5101 [3]) [mg/kg] | minimum inhibitory concentration (MIC) (Escherichia coli P-140a) [µg/mL] | MIC (Proteus rettgeri P-2503) [µg/mL] | MIC (Proteus mirabilis P-2381) [µg/mL] | MIC [4] [µg/mL] | MIC [5] [µg/mL] | MIC (Proteus morganii Kono) [µg/mL] | MIC [6] [µg/mL] | MIC [7] [µg/mL] | MIC [9] [µg/mL] | MIC [10] [µg/mL] | MIC [12] [µg/mL] | MIC [13] [µg/mL] | MIC [14] [µg/mL] | MIC [15] [µg/mL] | MIC [17] [µg/mL] | MIC [18] [µg/mL] | other results
CC1(C)S[C@@H]2[C@H](NC(=O)[C@H](NC(=O)c3c[nH]c4nc(N5CCN(C=O)CC5)ncc4c3=O)c3ccccc3)C(=O)N2[C@H]1C(=O)O [Compound B, D-α-[5,8-Dihydro-2-(4-formyl-1-piperazinyl)-5-oxopyrido[2,3-d]pyrimidine-6-carboxamido]-benzylpenicillin sodium salt] | 3.4 | < 4000 | 17.7 | 21 | 12.5 | 6.25 | 3.13 | 6.25 | 1.56 | 3.13 | 6.25 | 6.25 | 12.5 | 0.78 | 1.56 | 1.56 | 12.5 | 6.25 | 6.25 | 0.78 | LD50 at 168 h (in vivo; iv): 2830 mg/kg; MIC (Escherichia coli P-5101 [8]; Escherichia coli, P5101, read-out: minimum inhibitory concentration (MIC)): 3.13 µg/mL; MIC (Shigella flexneri 2a): 3.13 µg/mL; MIC ([11]; Staphylococcus aureus, 209P): 0.78 µg/mL; MIC ([16]; Streptococcus pyogenes, 65A): < 0.1 µg/mL
CN(C)c1ncc2c(=O)c(C(=O)N[C@@H](C(=O)N[C@@H]3C(=O)N4[C@@H]3SC(C)(C)[C@@H]4C(=O)O)c3ccc(O)cc3)c[nH]c2n1 [Compound E, D-α-(5,8-Dihydro-2-dimethylamino-5-oxopyrido[2,3-d]pyrimidine-6-carboxamido)-p-hydroxybenzylpenicillin] | ~10 | 1070 | 32.4 | 11 | 25 (≈ 43 µM) | 6.25 (≈ 10.7 µM) | 3.13 (≈ 5.38 µM) | 3.13 (≈ 5.38 µM) | 0.78 (≈ 1.34 µM) | 6.25 (≈ 10.7 µM) | 6.25 (≈ 10.7 µM) | 6.25 (≈ 10.7 µM) | 12.5 (≈ 21.5 µM) | 0.78 (≈ 1.34 µM) | 1.56 (≈ 2.68 µM) | 1.56 (≈ 2.68 µM) | 6.25 (≈ 10.7 µM) | 3.13 (≈ 5.38 µM) | 12.5 (≈ 21.5 µM) | 0.78 (≈ 1.34 µM) | selectivity ratio (in vivo; sc): 33; MIC (Escherichia coli P-5101 [8]; P5101, Escherichia coli P-5101, read-out: minimum inhibitory concentration (MIC)): 1.56 µg/mL (≈ 2.68 µM); MIC ([11]; Staphylococcus aureus 209P JC-1): 0.78 µg/mL (≈ 1.34 µM); MIC ([16]; Streptococcus pyogenes 65A): 0.025 µg/mL (≈ 0.043 µM)

From patent US4103011A, “Novel penicillin compounds and process for preparation thereof” (priority 1976, dated 1978)
